Assays:
[1] = rats, within 24 hours of administration; cited from earlier work
[2] = in vivo
Protocol: The ability to detect the blood concentration of a pain reliever, such as liquid acetaminophen in the blood stream by measuring a tracer is described. The research is carried out by two researchers A & B.
10 ml liquid cough medicine (acetaminophen) 10 ml of 80 proof vodka
Researcher “A” combines the liquid cough medicine together with the vodka in a common flask. “A” stirs until mixed. “A” gives the mixture to the study subject to consume orally. Waits 30 minutes. Subject breathes into breathalyzer, “A” extracts blood sample. “A” repeats both measurements 8 more times at 30 minute intervals. “A” compares alcohol readings with a PK curve for alcohol; compares mass spectrometer analysis of blood for the presence of acetaminophen with a PK curve for acetaminophen.
The standard PK curves for alcohol & acetaminophen are provided to “B”, and he is told the must analyze one reading that was taken 2 hours after ingestion, and determine whether the alcohol reading was within the anticipated range of PK curve. He is given the alcohol breathalyzer result for 2 hours after ingestion.

In the case of `CC(C)=CCCC(C)=CC=O` [Citral], the “fraction of the given dose excreted in urine” value [1] is given as 50%.
In the case of `CCO` [alcohol], the “2-hour breathalyzer reading versus anticipated range of PK curve” value [2] was “fall within statistical range” and the “PK results versus standard PK curve for alcohol” value ([2]; po) was “fall within range of the standard PK curve”.
In the case of `CC(=O)Nc1ccc(O)cc1` [acetaminophen], the “PK results versus standard PK curve for acetaminophen” value ([2]; po) was “fall within range of the standard PK curve”.

Source: patent US20070172424A1, “Enabling drug adherence through closed loop monitoring & communication” (priority 2006, published 2007)
